Test results: ChEMBL document CHEMBL5614409, “Discovery of potent HIV-1 NNRTIs by CuAAC click-chemistry-based miniaturized synthesis, rapid screening and structure optimization” (Eur J Med Chem, 2024)
≈ marks a conversion by molar mass, not a printed value.

Legend:
[1] = target: Human immunodeficiency virus type 1 reverse transcriptase (Human immunodeficiency virus 1) (UniProt Q72547); test: Inhibition of HIV-1 reverse transcriptase incubated for 2 hrs in presence of template and viral nucleotides by ELISA relative to control; set-up: concentration or dose not given beside the values; conditions: concentration not given here
[2] = tested on: Human immunodeficiency virus 1; test: Antiviral activity against HIV1 IIIB infected in MT4 cells assessed as reduction in virus induced cytopathic effect incubated for 5 days by MTT method; type: functional, organism-based; conditions: Human immunodeficiency virus 1, IIIB, MT4, 120 h
[3] = Cytotoxicity against human MT4 cells assessed as reduction in cell viability incubated for 5 days by MTT method; type: toxicity, cell-based; conditions: time 5 day
[4] = Selectivity index, ratio of CC50 for human MT4 cells to EC50 for antiviral activity against HIV1 IIIB infected in MT4 cells; type: toxicity, cell-based; conditions: read-out: Ratio CC50/EC50
[5] = tested on: Human immunodeficiency virus 1; test: Antiviral activity against HIV1 IIIB harboring L100I mutant infected in MT4 cells assessed as reduction in virus induced cytopathic effect incubated for 5 days by MTT method; type: functional, organism-based; conditions: Human immunodeficiency virus 1, IIIB, MT4, 120 h
[6] = tested on: Human immunodeficiency virus 1; test: Antiviral activity against HIV1 IIIB harboring K103 N mutant infected in MT4 cells assessed as reduction in virus induced cytopathic effect incubated for 5 days by MTT method; type: functional, organism-based; conditions: Human immunodeficiency virus 1, IIIB, MT4, 120 h
[7] = tested on: Human immunodeficiency virus 1; test: Antiviral activity against HIV1 IIIB harboring Y181C mutant infected in MT4 cells assessed as reduction in virus induced cytopathic effect incubated for 5 days by MTT method; type: functional, organism-based; conditions: Human immunodeficiency virus 1, IIIB, MT4, 120 h
[8] = tested on: Human immunodeficiency virus 1; test: Antiviral activity against HIV1 IIIB harboring Y188L mutant infected in MT4 cells assessed as reduction in virus induced cytopathic effect incubated for 5 days by MTT method; type: functional, organism-based; conditions: Human immunodeficiency virus 1, IIIB, MT4, 120 h
[9] = tested on: Human immunodeficiency virus 1; test: Antiviral activity against HIV1 IIIB harboring E138K mutant infected in MT4 cells assessed as reduction in virus induced cytopathic effect incubated for 5 days by MTT method; type: functional, organism-based; conditions: Human immunodeficiency virus 1, IIIB, MT4, 120 h
[10] = tested on: Human immunodeficiency virus 1; test: Antiviral activity against HIV1 IIIB harboring F227L/V106A double mutant infected in MT4 cells assessed as reduction in virus induced cytopathic effect incubated for 5 days by MTT method; type: functional, organism-based; conditions: Human immunodeficiency virus 1, IIIB, MT4, 120 h
[11] = tested on: Human immunodeficiency virus 1; test: Antiviral activity against HIV1 IIIB harboring RES056 mutant infected in MT4 cells assessed as reduction in virus induced cytopathic effect incubated for 5 days by MTT method; type: functional, organism-based; conditions: Human immunodeficiency virus 1, IIIB, MT4, 120 h
[12] = target: Human immunodeficiency virus type 1 reverse transcriptase (Human immunodeficiency virus 1, UniProt Q72547); test: Inhibition of HIV-1 reverse transcriptase assessed as reduction in biotin-dUTP incorporation incubated for 2 hrs in presence of template and viral nucleotides by ELISA
[13] = Aqueous solubility of compound at pH 7.4 incubated for 24 hrs under shaking condition by HPLC method; type: physicochemical; conditions: buffer
[14] = Aqueous solubility of compound at pH 7 incubated for 24 hrs under shaking condition by HPLC method; type: physicochemical; conditions: buffer
[15] = Aqueous solubility of compound at pH 2 incubated for 24 hrs under shaking condition by HPLC method; type: physicochemical; conditions: buffer
[16] = tested on: Human immunodeficiency virus 1; test: Antiviral activity against HIV1 IIIB harboring Y188L mutant infected in MT4 cells assessed as fold increase in reduction of virus induced cytopathic effect incubated for 5 days by MTT method relative to A6N36; type: functional; conditions: time 5 day

Row | Structure (SMILES) | inhibition [1] [%] | EC50 [2] [nM] | CC50 at 120 h [3] [nM] | selectivity ratio [4] | EC50 [5] [nM] | EC50 [6] [nM] | EC50 [7] [nM] | EC50 [8] [nM] | EC50 [9] [nM] | EC50 [10] [nM] | EC50 [11] [nM] | IC50 [12] [nM] | solubility thermodynamic at 24 h [13] [µg/mL] | solubility thermodynamic at 24 h [14] [µg/mL] | solubility thermodynamic at 24 h [15] [µg/mL] | fold change (FC) [16]
1 | Cc1ccccc1Cn1cc(CCNc2nccc(Oc3c(C)cc(C#N)cc3C)n2)nn1 | 55 |  |  |  |  |  |  |  |  |  |  |  |  |  |  | 
2 | Cc1cc(C#N)cc(C)c1Oc1ccnc(NC2CCN(Cc3cn(CC(=O)Nc4ccc(S(C)(=O)=O)cc4)nn3)CC2)n1 | 93.8 | 5 | 12200 | 2690 | 228 | 16 | 34 | 260 | 31 | 2880 | 3410 |  |  |  |  | 
3 | COC(=O)Cn1cc(CCNc2nccc(Oc3c(C)cc(/C=C/C#N)cc3C)n2)nn1 | 65.3 |  |  |  |  |  |  |  |  |  |  |  |  |  |  | 
4 | Cc1cc(/C=C/C#N)cc(C)c1Oc1ccnc(NC2CCN(Cc3cn(CC(=O)NC4CC4)nn3)CC2)n1 | 92.4 | 2 | 21000 | 14000 | 9 |  | 7 | 91 | 7 | 66 | 85 | 40 | 85 (≈ 161 µM) | 198 (≈ 375 µM) | 3190 (≈ 6040 µM) | 
5 | Cc1cc(C#N)cc(C)c1Oc1ccnc(NC2CCN(Cc3cn(Cc4ccc(C(N)=O)cc4)nn3)CC2)n1 | 94.1 | 2 | 7690 |  | 50 | 7 | 11 | 97 | 14 | 1040 | > 7690 | 55 |  |  |  | 
6 | Cc1cc(C#N)cc(C)c1Oc1ccnc(NC2CCN(Cc3cn(Cc4ccc(S(N)(=O)=O)cc4)nn3)CC2)n1 | 89.3 |  |  |  |  |  |  |  |  |  |  |  |  |  |  | 
7 | Cc1cc(C#N)cc(C)c1Oc1ccnc(NC2CCN(Cc3cn(Cc4ccccc4C#N)nn3)CC2)n1 | 91.3 | 2 | 4240 | 2020 | 231 | 15 | 27 | 366 | 27 | 1040 | > 4240 |  |  |  |  | 
8 | Cc1cc(C#N)cc(C)c1Oc1ccnc(NC2CCN(Cc3cn(CC(=O)NC4CC4)nn3)CC2)n1 | 93.4 | 3 | 31300 | 12500 | 150 | 19 | 30 | 399 | 28 | 3270 | 2630 | 62 |  |  |  | 
9 | Cc1cc(/C=C/C#N)cc(C)c1Oc1nc(NC2CCN(Cc3cn(CC(=O)NC4CC4)nn3)CC2)nc2sccc12 |  | 5 | 16900 | 3520 | 6 |  | 16 | 38 | 22 | 156 | 84 | 214 |  |  |  | 3
10 | COC(=O)CCCn1cc(CN2CCC(Nc3nccc(Oc4c(C)cc(C#N)cc4C)n3)CC2)nn1 | 90.7 | 10 | 21300 | 2060 |  |  |  |  |  |  |  | 56 |  |  |  | 
11 | Cc1cc(/C=C/C#N)cc(C)c1Oc1ccnc(NCCc2cn(Cc3ccc(S(N)(=O)=O)cc3)nn2)n1 | 69.2 |  |  |  |  |  |  |  |  |  |  |  |  |  |  | 
12 | COC(=O)CCCn1cc(CN2CCC(Nc3nccc(Oc4c(C)cc(/C=C/C#N)cc4C)n3)CC2)nn1 | 90.7 | 6 | 16100 | 2680 | 28 | 8 | 28 | 1090 | 36 | 830 | 2360 | 73 |  |  |  | 
13 | Cc1cc(C#N)cc(C)c1Oc1ccnc(NCCc2cn(Cc3ccc(Cl)cc3)nn2)n1 | 51.3 |  |  |  |  |  |  |  |  |  |  |  |  |  |  | 
14 | COC(=O)Cn1cc(CN2CCC(Nc3nccc(Oc4c(C)cc(/C=C/C#N)cc4C)n3)CC2)nn1 | 91.7 | 36 | 26200 | 732 |  |  |  |  |  |  |  | 52 |  |  |  | 
15 | Cc1cc(/C=C/C#N)cc(C)c1Oc1ccnc(NC2CCN(Cc3cn(CC(=O)N4CCOCC4)nn3)CC2)n1 | 89.4 | 2 | 30500 | 13300 | 61 | 3 | 17 | 1260 | 10 | 664 | 1170 | 59 |  |  |  | 
16 | CCNC(=O)Cn1cc(CN2CCC(Nc3nc(Oc4c(C)cc(/C=C/C#N)cc4C)c4ccsc4n3)CC2)nn1 |  | 4 | 19000 | 5010 | 7 |  | 12 | 29 | 17 | 36 | 55 | 210 | 22.6 (≈ 39.5 µM) | 25.1 (≈ 43.9 µM) | 659 (≈ 1150 µM) | 3
17 | Cc1cc(/C=C/C#N)cc(C)c1Oc1ccnc(NC2CCN(Cc3cn(Cc4ccc(B(O)O)cc4)nn3)CC2)n1 | 92.2 | 6 | 4620 | 825 | 9 | 4 | 11 | 78 | 19 | 99 | 133 | 96 |  |  |  | 
18 | Cc1cc(C#N)cc(C)c1Oc1nc(Nc2ccc(C#N)cc2)nc(N)c1Br [ETRAVIRINE] | 52.3 |  | > 4600 | > 1090 | 7 | 3 | 12 |  | 4 |  | 38 |  |  |  |  | 
19 | CCOC(=O)Cn1cc(CN2CCC(Nc3nccc(Oc4c(C)cc(/C=C/C#N)cc4C)n3)CC2)nn1 | 90.9 | 11 | 18800 | 1740 |  |  |  |  |  |  |  | 54 |  |  |  | 
20 | Cc1cc(/C=C/C#N)cc(C)c1Oc1nc(NC2CCN(Cc3cn(CC(=O)NC4CC4)nn3)CC2)nc2ccccc12 |  | 5 | 22400 | 4150 | 19 | 9 | 41 | 58 | 29 | 546 | 232 |  |  |  |  | 
21 | Cc1cc(C#N)cc(C)c1Oc1ccnc(NC2CCN(Cc3cn(Cc4ccc(B(O)O)cc4)nn3)CC2)n1 | 89.8 |  |  |  |  |  |  |  |  |  |  |  |  |  |  | 
